{
  "source": "patent EP2242752B1",
  "about": "“[…] IMIDAZOLES AS HEPATITIS C VIRUS INHIBITORS” (Bristol-Myers Squibb Company, priority 2008, dated 2009)",
  "system": "HCV 1b genotype",
  "assay": "HCV Replicon assay (HCV 16-377-neo replicon cells)",
  "assay_type": "cell-based",
  "details": "Hepatitis C virus; HCV 1b genotype replicon cells; read-out: EC50 ranges against HCV 1b",
  "summary_of_the_method": "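Inhibition measured in HCV 16-377-neo replicon cells, alongside replicon cells carrying the NS5A Y2065H resistance mutation.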",
  "data": [
    {"compound": "COC(=O)N[C@H](C(=O)N1[C@@H](C)CC[C@H]1c1nc(-c2ccc(-c3ccc(-c4c[nH]c([C@@H]5CC[C@H](C)N5C(=O)[C@@H](NC(=O)OC)C(C)C)n4)cc3)cc2)c[nH]1)C(C)C", "note": "[Example M151, methyl ((1S)-1-(((2S,5S)-2-(4-(4'-(2-((2S,5S)-1-((2S)-2-((methoxycarbonyl)amino)-3-methylbutanoyl)-5-methyl-2-pyrrolidinyl)-1H-imidazol-4-yl)-4-biphenylyl)-1H-imidazol-2-yl)-5-methyl-1-pyrrolidinyl)carbonyl)-2-methylpropyl)carbamate]", "values": [
      {"measurement": "EC50", "result": "0.001 to 0.999", "unit": "nM"}
    ]},
    {"compound": "COC(=O)N[C@H](C(=O)N1CCC[C@H]1c1nc(-c2ccc(-c3ccc(-c4[nH]c([C@@H]5CCCN5C(=O)[C@@H](NC(=O)OC)C(C)C)nc4CC(OC)OC)cc3)cc2)c[nH]1)C(C)C", "note": "[Example J14a.1, methyl ((1S)-1-(((2S)-2-(4-(2,2-dimethoxyethyl)-5-(4'-(2-((2S)-1-((2S)-2-((methoxycarbonyl)amino)-3-methylbutanoyl)-2-pyrrolidinyl)-1H-imidazol-4-yl)-4-biphenylyl)-1H-imidazol-2-yl)-1-pyrrolidinyl)carbonyl)-2-methylpropyl)carba mate]", "values": [
      {"measurement": "EC50", "result": "0.001 to 0.999", "unit": "nM"}
    ]},
    {"compound": "COC(=O)NCC(=O)N1[C@@H]2C[C@@H]2C[C@H]1c1ncc(-c2ccc(-c3ccc(-c4cnc([C@@H]5C[C@H]6C[C@H]6N5C(=O)CNC(=O)OC)[nH]4)cc3)cc2)[nH]1", "note": "(mixture of isomers) [Example M134, methyl (2-((1R,3S,SR)-3-(4-(4'-(2-((1R,3S,SR)-2-(((methoxycarbonyl)amino)acetyl)-2-azabicyclo[3.1.0]hex-3-yl)-1H-imidazol-4-yl)-4-biphenylyl)-1H-imidazol-2-yl)-2-azabicyclo[3.1.0]hex-2-yl)-2-oxoethyl) carbamate]", "values": [
      {"measurement": "EC50", "result": "1 to 99", "unit": "nM"}
    ]},
    {"compound": "CC(C)CC(=O)N1[C@@H](C)CC[C@H]1c1nc(-c2ccc(-c3ccc(-c4c[nH]c([C@@H]5CC[C@H](C)N5C(=O)CC(C)C)n4)cc3)cc2)c[nH]1", "note": "[Example M158, 4,4'-(4,4'-biphenyldiyl)bis(2-((2S,5S)-5-methyl-1-(3-methylbutanoyl)-2-pyrrolidinyl)-1H-imidazole)]", "values": [
      {"measurement": "EC50", "result": "1 to 99", "unit": "nM"}
    ]},
    {"compound": "CC(C)[C@H](Nc1ncccn1)C(=O)N1[C@@H]2C[C@@H]2C[C@H]1c1ncc(-c2ccc(-c3ccc(-c4cnc([C@@H]5C[C@H]6C[C@H]6N5C(=O)[C@@H](Nc5ncccn5)C(C)C)[nH]4)cc3)cc2)[nH]1", "note": "[Example M144, N,N'-(4,4'-biphenyldiylbis(1H-imidazole-4,2-diyl(1R,3S,5R)-2-azabicyclo[3.1.0]hexane-3,2-diyl((2S)-3-methyl-1-oxo-1, -butanediyl)))di(2-pyrimidinamine)]", "values": [
      {"measurement": "EC50", "result": "0.001 to 0.999", "unit": "nM"}
    ]},
    {"compound": "COC(=O)N[C@@H](C(=O)N1CC2(CC2)C[C@H]1c1nc(-c2ccc(-c3ccc(-c4c[nH]c([C@@H]5CC6(CC6)CN5C(=O)[C@H](NC(=O)OC)C(C)C)n4)cc3)cc2)c[nH]1)C(C)C", "note": "[Example M149, methyl ((1R)-1-(((6S)-6-(4-(4'-(2-((6S)-5-((2R)-2-((methoxycarbonyl)amino)-3-methylbutanoyl)-5-azaspiro[2.4]hept-6-yl)-1H-imidazol-4-yl)-4-biphenylyl)-1H-imidazol-2-yl)-5-azaspiro[2.4]hept-5-yl)carbonyl)-2-methylpropyl)carbamate]", "values": [
      {"measurement": "EC50", "result": "1 to 99", "unit": "nM"}
    ]},
    {"compound": "COC(=O)N[C@@H](C(=O)N1[C@@H]2C[C@@H]2C[C@H]1c1nc(-c2ccc(-c3ccc(-c4c[nH]c([C@@H]5C[C@H]6C[C@H]6N5C(=O)[C@H](NC(=O)OC)C(C)C)n4)cc3)cc2)c[nH]1)C(C)C", "note": "[Example M136, methyl ((1R)-1-(((1R,3S,5R)-3-(4-(4'-(2-((1R,3S,5R)-2-((2R)-2-((methoxycarbonyl)amino)-3-methylbutanoyl)-2-azabicyclo[3.1.0]hex-3-yl)-1H-imidazol-4-yl)-4-biphenylyl)-1H-imidazol-2-yl)-2-azabicyclo[3.1.0]hex-2-yl)carbonyl)-2-methylpropyl)carbamate]", "values": [
      {"measurement": "EC50", "result": "1 to 99", "unit": "nM"}
    ]},
    {"compound": "COC(=O)N[C@@H](C)C(=O)N1[C@@H]2C[C@@H]2C[C@H]1c1ncc(-c2ccc(-c3ccc(-c4cnc([C@@H]5C[C@H]6C[C@H]6N5C(=O)[C@H](C)NC(=O)OC)[nH]4)cc3)cc2)[nH]1", "note": "[Example M132, methyl ((1S)-2-((1R,3S,5R)-3-(4-(4'-(2-((1R,3S,SR)-2-(N(methoxycarbonyl)-L-alanyl)-2-azabicyclo[3.1.0]hex-3-yl)-1H-imidazol-4-yl)-4-biphenyl)-1H-imidazol-2-yl)-2-azabicyclo[3.1.0]hex-2-yl)-1-methyl-2-oxoethyl)carbamate]", "values": [
      {"measurement": "EC50", "result": "0.001 to 0.999", "unit": "nM"}
    ]},
    {"compound": "COC(=O)N[C@H](C(=O)N1CCC[C@H]1c1nc(-c2ccc(-c3ccc(-c4nc([C@@H]5CCCN5C(=O)[C@@H](NC(=O)OC)[C@@H](C)OC)[nH]c4C)cc3)cc2)c(C)[nH]1)[C@@H](C)OC", "note": "[Example E5m, methyl ((1S,2R)-2-methoxy-1-(((2S)-2-(4-(4'-(2-((2S)-1-(N-(methoxycarbonyl)-O-methyl-L-threonyl)-2-pyrrolidinyl)-5-methyl-1H-imidazol-4-yl)-4-biphenylyl)-5-methyl-1H-imidazol-2-yl)-1-pyrrolidinyl)carbonyl)propyl)carbamate]", "values": [
      {"measurement": "EC50", "result": "0.001 to 0.999", "unit": "nM"}
    ]},
    {"compound": "COC(=O)NCC(=O)N1CC2(CC2)C[C@H]1c1nc(-c2ccc(-c3ccc(-c4c[nH]c([C@@H]5CC6(CC6)CN5C(=O)CNC(=O)OC)n4)cc3)cc2)c[nH]1", "note": "[Example M146, methyl (2-((6S)-6-(4-(4'-(2-((6S)-5-(((methoxycarbonyl)amino)acetyl)-5-azaspiro[2.4]hept-6-yl)-1H-imidazol-4-yl)-4-biphenylyl)-1H-imidazol-2-yl)-5-azaspiro[2.4]hept-5-yl)-2-oxoethyl)carbamate]", "values": [
      {"measurement": "EC50", "result": "0.001 to 0.999", "unit": "nM"}
    ]},
    {"compound": "CCCc1nc([C@@H]2CCCN2C(=O)[C@H](C)NC(=O)OC)[nH]c1-c1ccc(-c2ccc(-c3c[nH]c([C@@H]4CCCN4C(=O)[C@H](C)NC(=O)OC)n3)cc2)cc1", "note": "[Example J14c, methyl ((1S)-2-((2S)-2-(4-(4'-(2-((2S)-1-(N-(methoxycarbonyl)-L-alanyl)-2-pyrrolidinyl)-4-propyl-1H-imidazol-5-yl)-4-biphenylyl)-1H-imidazol-2-yl)-1-pyrrolidinyl)-1-methyl-2-oxoethyl)carbamate]", "values": [
      {"measurement": "EC50", "result": "0.001 to 0.999", "unit": "nM"}
    ]},
    {"compound": "CC[C@H](NC(=O)OC)C(=O)N1[C@@H]2C[C@@H]2C[C@H]1c1nc(-c2ccc(-c3ccc(-c4c[nH]c([C@@H]5C[C@H]6C[C@H]6N5C(=O)[C@H](CC)NC(=O)OC)n4)cc3)cc2)c[nH]1", "note": "[Example M133, dimethyl (4,4'-biphenyldiylbis(1H-imidazole-4,2-diyl(1R,3S,5R)-2-azabicyclo[3.1.0]hexane-3,2-diyl((2S)-1-oxo-1,2-butanediyl)))biscarbamate]", "values": [
      {"measurement": "EC50", "result": "0.001 to 0.999", "unit": "nM"}
    ]},
    {"compound": "COC(=O)N[C@H](C(=O)N1CC2(CC2)C[C@H]1c1nc(-c2ccc(-c3ccc(-c4c[nH]c([C@@H]5CC6(CC6)CN5C(=O)[C@@H](NC(=O)OC)C(C)C)n4)cc3)cc2)c[nH]1)C(C)C", "note": "[Example M145, methyl ((1S)-1-(((6S)-6-(4-(4'-(2-((6S)-5-((2S)-2-((methoxycarbonyl)amino)-3-methylbutanoyl)-5-azaspiro[2.4]hept-6-yl)-1H-imidazol-4-yl)-4-biphenylyl)-1H-imidazol-2-yl)-5-azaspiro[2.4]hept-5-yl)carbonyl)-2-methylpropyl)carbamate]", "values": [
      {"measurement": "EC50", "result": "0.001 to 0.999", "unit": "nM"}
    ]},
    {"compound": "CC(C)[C@@H](NC(=O)OC(C)(C)C)C(=O)N1[C@@H]2C[C@@H]2C[C@H]1c1nc(-c2ccc(-c3ccc(-c4c[nH]c([C@@H]5C[C@H]6C[C@H]6N5C(=O)[C@H](NC(=O)OC(C)(C)C)C(C)C)n4)cc3)cc2)c[nH]1", "note": "[Example M142, tert-butyl ((1R)-1-(((1R,3S,5R)-3-(4-(4'-(2-((1R,3S,5R)-2-((2R)-2-((tert-butoxycarbonyl)amino)-3-methylbutanoyl)-2-azabicyclo[3.1.0]hex-3-yl)-1H-imidazol-4-yl)-4-biphenylyl)-1H-imidazol-2-yl)-2-azabic yclo[3.1.0]hex-2-yl)carbonyl)-2-methylpropyl)carbamate]", "values": [
      {"measurement": "EC50", "result": "1 to 99", "unit": "nM"}
    ]},
    {"compound": "CCCc1[nH]c([C@@H]2CCCN2C(=O)[C@@H](NC(=O)OC)C(C)C)nc1-c1ccc(-c2ccc(-c3c[nH]c([C@@H]4CCCN4C(=O)[C@@H](NC(=O)OC)C(C)C)n3)cc2)cc1", "note": "[Example J14c.2, methyl ((1S)-1-(((2S)-2-(4-(4'-(2-((2S)-1-((2S)-2-((methoxycarbonyl)amino)-3-methylbutanoyl)-2-pyrrolidinyl)-1H-imidazol-4-yl)-4-biphenylyl)-5-propyl-1H-imidazol-2-yl)-1-pyrrolidinyl)carbonyl)-2-methylpropyl)carba mate]", "values": [
      {"measurement": "EC50", "result": "0.001 to 0.999", "unit": "nM"}
    ]},
    {"compound": "CC[C@H](NC(=O)OC)C(=O)N1CC2(CC2)C[C@H]1c1nc(-c2ccc(-c3ccc(-c4c[nH]c([C@@H]5CC6(CC6)CN5C(=O)[C@H](CC)NC(=O)OC)n4)cc3)cc2)c[nH]1", "note": "[Example M148, dimethyl (4,4'-biphenyldiylbis(1H-imidazole-4,2-diyl(6S)-5-azaspiro[2.4]heptane-6,5-diyl((2S)-1-oxo-1,2-butanediyl)))biscarbamate]", "values": [
      {"measurement": "EC50", "result": "0.001 to 0.999", "unit": "nM"}
    ]},
    {"compound": "COC(=O)N[C@@H](C(=O)N1[C@@H]2C[C@H]2C[C@H]1c1nc(-c2ccc(-c3ccc(-c4c[nH]c([C@@H]5C[C@@H]6C[C@H]6N5C(=O)[C@H](NC(=O)OC)c5ccccc5)n4)cc3)cc2)c[nH]1)c1ccccc1", "note": "(mixture of isomers) [Example M137, dimethyl (4,4'-biphenyldiylbis(1H-imidazole-4,2-diyl(1R,3S,SR)-2-azabicyclo[3.1.0]hexane-3,2-diyl((1R)-2-oxo-1-phenyl-2,1-ethanediyl)))biscarbamate]", "values": [
      {"measurement": "EC50", "result": "0.001 to 0.999", "unit": "nM"}
    ]},
    {"compound": "COC(=O)N[C@@H](C)C(=O)N1CCC[C@H]1c1nc(-c2ccc(-c3ccc(-c4nc([C@@H]5CCCN5C(=O)[C@H](C)NC(=O)OC)[nH]c4C)cc3)cc2)c(C)[nH]1", "note": "[Example E5k, methyl ((1S)-2-((2S)-2-(4-(4'-(2-((2S)-1-(N-(methoxycarbonyl)-L-alanyl)-2-pyrrolidinyl)-5-methyl-1H-imidazol-4-yl)-4-biphenylyl)-5-methyl-1H-imidazol-2-yl)-1-pyrrolidinyl)-1-methyl-2-oxoethyl)carbamate]", "values": [
      {"measurement": "EC50", "result": "0.001 to 0.999", "unit": "nM"}
    ]}
  ]
}
